Measurements as given in paper PMC5023777 (British Journal of Cancer, 2016).

Assays:
HCT116 cells [1] = test: Cell cycle phase analysis by flow cytometry, HCT116; details: GI50 concentration (100 μM for 6 and 3), 24 h, asynchronous cultures
HCT116 cells [2] = test: SRB cell growth inhibition assay, HCT116; type: cell-based, human; details: HCT116 and HT29 cells, SRB GI50
mTOR = mTOR (Homo sapiens, UniProt P42345); test: mTOR kinase TR-FRET assay; type: biochemical
HCT116 cells [3] = test: Clonogenic survival assay, HCT116; type: cell-based, human; details: 10 μM, 72 h exposure
CDK2 = CDK2 (Homo sapiens, UniProt P24941); test: CDK2 purified kinase assay; type: biochemical

mTOR, sequence (P42345 1360-2549 limits assumed): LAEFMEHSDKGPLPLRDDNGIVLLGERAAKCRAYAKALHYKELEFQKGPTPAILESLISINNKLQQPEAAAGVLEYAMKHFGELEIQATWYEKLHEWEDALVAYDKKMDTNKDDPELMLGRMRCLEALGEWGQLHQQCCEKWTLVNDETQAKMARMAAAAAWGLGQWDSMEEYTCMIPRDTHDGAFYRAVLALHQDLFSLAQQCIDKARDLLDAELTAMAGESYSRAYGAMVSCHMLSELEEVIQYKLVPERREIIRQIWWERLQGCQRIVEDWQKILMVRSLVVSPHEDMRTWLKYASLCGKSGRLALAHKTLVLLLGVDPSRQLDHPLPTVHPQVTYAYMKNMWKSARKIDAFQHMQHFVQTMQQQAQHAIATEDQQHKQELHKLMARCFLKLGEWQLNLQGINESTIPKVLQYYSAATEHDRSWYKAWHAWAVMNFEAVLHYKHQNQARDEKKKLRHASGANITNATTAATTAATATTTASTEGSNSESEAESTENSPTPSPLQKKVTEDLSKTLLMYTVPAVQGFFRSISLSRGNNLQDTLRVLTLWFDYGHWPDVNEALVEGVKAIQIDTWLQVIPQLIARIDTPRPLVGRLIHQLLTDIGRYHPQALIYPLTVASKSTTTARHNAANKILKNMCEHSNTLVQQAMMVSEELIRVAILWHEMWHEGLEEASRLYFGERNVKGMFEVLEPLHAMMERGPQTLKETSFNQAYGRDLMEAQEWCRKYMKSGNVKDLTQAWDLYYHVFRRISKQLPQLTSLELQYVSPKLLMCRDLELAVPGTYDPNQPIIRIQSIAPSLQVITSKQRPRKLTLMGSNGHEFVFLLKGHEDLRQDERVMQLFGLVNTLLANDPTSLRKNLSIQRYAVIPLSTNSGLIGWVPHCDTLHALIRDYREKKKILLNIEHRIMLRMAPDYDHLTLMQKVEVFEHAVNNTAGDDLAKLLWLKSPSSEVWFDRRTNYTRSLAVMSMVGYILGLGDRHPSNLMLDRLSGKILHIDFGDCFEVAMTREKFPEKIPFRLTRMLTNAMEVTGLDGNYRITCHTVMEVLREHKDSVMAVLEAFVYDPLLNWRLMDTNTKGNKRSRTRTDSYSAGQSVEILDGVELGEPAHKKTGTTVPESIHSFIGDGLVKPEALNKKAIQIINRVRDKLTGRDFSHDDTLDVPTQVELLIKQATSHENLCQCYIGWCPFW

SMILES | effect on cell cycle phase distribution, HCT116 (HCT116 cells [1]) | fold less potent at inhibiting cell growth than 1, 2 and 5 (HCT116 cells [2]) | IC50 (mTOR) [µM] | further results
CO[C@H]1C[C@@H]2CC[C@@H](C)[C@@](O)(O2)C(=O)C(=O)N2CCCC[C@H]2C(=O)O[C@H]([C@H](C)C[C@@H]2CC[C@@H](O)[C@H](OC)C2)CC(=O)[C@H](C)/C=C(\C)[C@@H](O)[C@@H](OC)C(=O)[C@H](C)C[C@H](C)/C=C/C=C/C=C/1C [Rapamycin] | caused a G1 arrest |  |  | 
CCC(C)Oc1nc(N)nc(N)c1C#N (stereo not shown) [Compound 7, 2,6-Diamino-4-sec-butoxypyrimidine-5-carbonitrile] |  | 5–10 fold | > 20 | 
NS(=O)(=O)c1ccc(Nc2nc(OCC3CCCCC3)c3nc[nH]c3n2)cc1 [NU6102, 4-[[6-(cyclohexylmethoxy)-9H-purin-2-yl]amino]-benzenesulfonamide] |  |  |  | cytotoxicity (clonogenic), HCT116 (HCT116 cells [3]): cytotoxic as a single agent
Nc1nc(N)c(N=O)c(OCC2CCCCC2)n1 [Compound 2] | greater G1 phase accumulation than rapamycin or dactolisib |  | 19 | 
Cn1c(=O)n(-c2ccc(C(C)(C)C#N)cc2)c2c3cc(-c4cnc5ccccc5c4)ccc3ncc21 [Dactolisib (NVP-BEZ235)] | caused a G1 arrest |  |  | 
Nc1nc(N)c(N=O)c(OCc2ccc(Cl)cc2)n1 [Compound 8, 6-(4-Chlorobenzyloxy)-5-nitrosopyrimidine-2,4-diamine] |  | 5–10 fold | 4.9 | inhibition of CDK2 (in words) (CDK2): did not inhibit CDK2
